Test results taken from paper PMC10082216 (Nature Communications, 2023).

Assays:
[1] = test system: mature stage V gametocytes (NF54 strain); assay: microbe, parasite or virus in culture; assay type: cell-based, Plasmodium falciparum; conditions: for Retention IC10: Fig. 3 dose-response; for IC50 / IC90: Plasmodium falciparum; for IC90: NF54, read-out: Retention IC90
Method in brief: (§1)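 NF54 stage V gametocytes (day 17, density-purified, 0.5% hematocrit) exposed 24 h to compounds at 1.11 µM (primary) or in dose-response. Killing scored by MitoTracker staining; gametocytemia by Sybr Green/CellMask staining, with microsphiltration for stiffening. DMSO 0.05% negative control.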

[2] = test system: mature stage V gametocytes (NF54 strain); assay: High-throughput screening: killing effect by MitoTracker staining, primary screening at 1.11 µM and dose-response analysis; assay type: cell-based, Plasmodium falciparum; set-up: Killing 1 / Killing 2: unit not given here
Method in brief: as §1

[3] = Hit scoring on safety in human subjects and pharmacokinetics; conditions: for Score (PK): peak plasma concentration vs IC50
Excerpt: Hits from the ReFrame library were further selected based on safety, preferably oral administration (high score if oral), and potential availability for widespread use.

[4] = NF54, 24 h, read-out: Stiffening IC50 (retention)

## C[C@H]1Cc2c([nH]c3cc(Cl)c(F)cc23)[C@@]2(N1)C(=O)Nc1ccc(Cl)cc12 [NITD609, cipargamin]
[1]; Concentration 0.00457
  Retention 1: 5.495
  Retention 2: 24.2833
[1]; Concentration 0.01372
  Retention 1: 19.4986
  Retention 2: 27.3994
[1]; Concentration 0.04115
  Retention 1: 24.1896
  Retention 2: 16.3872
[1]; Concentration 0.12346
  Retention 1: 74.5556
  Retention 2: 59.61
[1]; Concentration 0.37037
  Retention 1: 100
  Retention 2: 100
[1]; Concentration 1.11111
  Retention 1: 100
  Retention 2: 94.1314
[1]; Concentration 3.33333
  Retention 1: 100
  Retention 2: 100
[1]; Concentration 10
  Retention 1: 100
  Retention 2: 100
[1]
  Retention IC10: 60 nM
  IC90: 160 nM
[1]; [4]
  IC50: 110 nM
[2]; Concentration (µM) 0.00457
  Killing 1: -6.197
  Killing 2: 1.637
[2]; Concentration (µM) 0.01372
  Killing 1: 7.015
  Killing 2: 11.7246
[2]; Concentration (µM) 0.04115
  Killing 1: 2.936
  Killing 2: 8.401
[2]; Concentration (µM) 0.12346
  Killing 1: 38.3591
  Killing 2: 39.938
[2]; Concentration (µM) 0.37037
  Killing 1: 69.6281
  Killing 2: 81.8548
[2]; Concentration (µM) 1.11111
  Killing 1: 86.7644
  Killing 2: 86.5546
[2]; Concentration (µM) 3.33333
  Killing 1: 82.0471
  Killing 2: 89.8018
[2]; Concentration (µM) 10
  Killing 1: 93.1364
  Killing 2: 89.7094
[2]; Fig. 3 dose-response
  Killing IC10: 50 nM
[2]; Plasmodium falciparum, NF54, 24 h, stage V gametocytes NF54, 24 h, dose-response analysis, N/A = not active in dose-response analysis, read-out: Killing IC50
  IC50: 150 nM
[2]; Plasmodium falciparum, NF54, Fig. 3 dose-response
  IC90: 500 nM
[3]
  Score (safety): 3
  Score (PK): 6 (Peak plasma concentration higher than 3 IC50 (Score = 6))

## CNC(=O)N1C[C@@H](C)N(c2ccc(C(=O)Nc3ccc(-c4ccc(-c5c[nH]c([C@@H]6CCCN6C(=O)[C@@H](NC(=O)OC)C(C)C)n5)cc4)c(OC(F)(F)F)c3)cn2)C[C@@H]1C [TD-6450]
[1]; 1.11 µM
  outcome of primary screen (hit definition): met the hit definition
[1]; Concentration 0.00457
  Retention 1: 6.791
  Retention 2: 14.2035
[1]; Concentration 0.01372
  Retention 1: 30.2208
  Retention 2: 10.7025
[1]; Concentration 0.04115
  Retention 1: 30.7002
  Retention 2: 37.9062
[1]; Concentration 0.12346
  Retention 1: 45.793
  Retention 2: 33.0106
[1]; Concentration 0.37037
  Retention 1: 16.5379
  Retention 2: 35.496
[1]; Concentration 1.11111
  Retention 1: 46.8849
  Retention 2: 58.9321
[1]; Concentration 3.33333
  Retention 1: 60.4317
  Retention 2: 53.8901
[1]; Concentration 10
  Retention 1: 70.8882
  Retention 2: 66.7706
[1]
  Retention IC10: 30 nM
  IC90: 4500 nM
[1]; [4]
  IC50: 550 nM
[1]; NF54, read-out: IC50 during the screening campaign, all gametocytes stained
  IC50: 455 ± 304 nM
[1]; one well/compound, 1.11 µM
  differential retention rate versus DMSO upon primary screening: 32%
[2]; Concentration (µM) 0.00457
  Killing 1: 11.2808
  Killing 2: -14.2963
[2]; Concentration (µM) 0.01372
  Killing 1: 2.341
  Killing 2: 5.18
[2]; Concentration (µM) 0.04115
  Killing 1: 2.7905
  Killing 2: -6.465
[2]; Concentration (µM) 0.12346
  Killing 1: 6.495
  Killing 2: 2.622
[2]; Concentration (µM) 0.37037
  Killing 1: 21.5808
  Killing 2: 10.8967
[2]; Concentration (µM) 1.11111
  Killing 1: 13.8006
  Killing 2: -5.531
[2]; Concentration (µM) 3.33333
  Killing 1: 21.7528
  Killing 2: 15.2641
[2]; Concentration (µM) 10
  Killing 1: 38.4381
  Killing 2: 9.163
[3]
  Score (safety): 3
  Score (PK): 3 (Peak plasma concentration between IC50 and 3 IC50 (Score = 3))

## COc1cc2c(cc1OC)[C@@H]1Cc3ccc(OC)c(OC)c3CN1CC2 [(S)-(-)-Tetrahydropalmatine]
[1]; Concentration 0.00457
  Retention 1: 36.1518
  Retention 2: 18.1904
[1]; Concentration 0.01372
  Retention 1: 42.4295
  Retention 2: 17.9082
[1]; Concentration 0.04115
  Retention 1: 39.0679
  Retention 2: 21.6203
[1]; Concentration 0.12346
  Retention 1: 52.9692
  Retention 2: 17.6021
[1]; Concentration 0.37037
  Retention 1: 34.5737
  Retention 2: 33.9194
[1]; Concentration 1.11111
  Retention 1: 41.4215
  Retention 2: 25.646
[1]; Concentration 3.33333
  Retention 1: 50.7426
  Retention 2: 20.0803
[1]; Concentration 10
  Retention 1: 49.3139
  Retention 2: 22.5855
[1]; [4]
  IC50: 1 nM
[1]
  IC90: 6 nM
[2]; Concentration (µM) 0.00457
  Killing 1: -2.5151
  Killing 2: 13.1152
[2]; Concentration (µM) 0.01372
  Killing 1: -0.7507
  Killing 2: 16.6892
[2]; Concentration (µM) 0.04115
  Killing 1: -11.759
  Killing 2: -1.725
[2]; Concentration (µM) 0.12346
  Killing 1: -2.104
  Killing 2: -3.416
[2]; Concentration (µM) 0.37037
  Killing 1: -7.032
  Killing 2: 6.932
[2]; Concentration (µM) 1.11111
  Killing 2: -20.6174
[2]; Concentration (µM) 3.33333
  Killing 2: 1.7558
[2]; Concentration (µM) 10
  Killing 2: -10.2887
[3]
  Score (safety): 3
  Score (PK): 6 (Peak plasma concentration higher than 3 IC50 (Score = 6))
